In brackets after ≈: the same amount, converted by molar mass. Where two headings read alike, the source gives them in different places.
Key:
P-388 murine leukemia = assay: Cytotoxicity screening against P-388 cell culture; format: cell-based; settings: Mus musculus, P388; P-388 cells, approximate IC50 from growth vs control wells
Source text: (§1) Cell Cultures. Cells were maintained in logarithmic phase of growth in eagle's Minimum Essential Medium, with Earle's Balanced Salts, with […] L-glutamine, with non-essential amino acids, without sodium bicarbonate (EMEM/neaa); supplemented with 10% Fetal Calf Serum (FCS), 10^−2 M sodium bicarbonate and 0,1 g/l penicillin-G+streptomycin sulfate.
(§2) A simple screening procedure has been carried out to determine and compare the antitumor activity of these compounds, using an adapted form of the method described by Bergeron et al. (1984)(1). The antitumor cells employed have been P-388 (suspension culture of a lymphoid neoplasm from DBA/2 mouse), A0549 (monolayer culture of a human lung carcinoma), HT-29 (monolayer culture of a human colon carcinoma) and MEL-28 (monolayer culture of a human melanoma).
(§3) P-388 cells were seeded into 16 mm wells at 1×10^4 cells per well in 1 ml aliquots of MEM 5FCS containing the indicated concentration of drug. A separate set of cultures without drug was seeded as control growth to ensure that cells remained in exponential phase of growth. All a 98% humid atmosphere, an approximately IC50 was determined by comparing the growth in wells with drug to the growth in wells control.

[1] = test system: A-549 human lung carcinoma; assay: Cytotoxicity screening against A-549 cell culture; format: cell-based; settings: A-549 cells, three days of incubation, Crystal Violet
Source text: as §1, §2
as §3, with “A-549, HT-29 and MEL-28” for “P-388”, “2×10^4” for “1×10^4”, “10FCS” for “5FCS”, “All determinations were carried out in duplicate. After three days of incubation at 37° C., 10% CO2 in” for “All”, “the wells were stained with 0.1% Crystal Violet. An” for “an”

[2] = test system: HT-29 human colon carcinoma; assay: Cytotoxicity screening against HT-29 cell culture; format: cell-based; settings: HT-29 cells, three days of incubation, Crystal Violet
Source text: as §1, §2
as §3, with “A-549, HT-29 and MEL-28” for “P-388”, “2×10^4” for “1×10^4”, “10FCS” for “5FCS”, “All determinations were carried out in duplicate. After three days of incubation at 37° C., 10% CO2 in” for “All”, “the wells were stained with 0.1% Crystal Violet. An” for “an”

MEL-28 human melanoma = assay: Cytotoxicity screening against MEL-28 cell culture; format: cell-based; settings: SK-MEL-28, 72 h, MEL-28 cells, three days of incubation, Crystal Violet
Source text: as §1, §2
as §3, with “A-549, HT-29 and MEL-28” for “P-388”, “2×10^4” for “1×10^4”, “10FCS” for “5FCS”, “All determinations were carried out in duplicate. After three days of incubation at 37° C., 10% CO2 in” for “All”, “the wells were stained with 0.1% Crystal Violet. An” for “an”

[3] = Stability observations (light, air, handling); format: physicochemical; settings: N-oxides, then o-quinolinoquinone, form
Experimental: Halitulin (2) was analyzed for C35H40N4O4 by HREIMS (m/z 580.3054, 100% Δmmu−0.5) confirmed by positive and negative FABMS (m/z 581 and 579, respectively). […] The duplicated part, according to the integration of the proton signals, was determined to be the aromatic portion of the molecule. Comparing the NMR data of the aliphatic part of 2 (Table 1) with haliclorensin (1)^7, together with the COSY, TOCSY, and HMBC data, established their identity. The incorporation of 1 in halitulin was further supported by the two MS fragments at m/z 168 (C11H22N+, 48%) and m/z/399 (MW^+-C12H24N, 90%), resulting from the preferable αβ to the aliphatic nitrogen-atoms^1 fragmentation at C-13,14 and C-12,13 respectively. Determination of the haliclorensin moiety in 2 left C22H14N3O4 (including the adjoining N-atom) with 17 degrees of unsaturation to be accounted for. […] Indeed, acetylation of 2, with a 1:1 mixture of Ac2O/pyridine, overnight at room temperature., afforded a very unstable tetra phenol acetate (3), on the basis of the HREIMS which gave the suitable molecular ion and also four subsequential losses of 42 mass units, and no loss of 60 mass units^13. The four phenol acetate groups were in full agreement with the 1773 cm^−1 IR absorption and the new methyls in the proton NMR. […]

[4] = Cytotoxic activity, test not specified; format: cell-based; settings: qualitative statement, cell line not given

Row | stability to light and air [3] | Structure (SMILES) | IC50 (P-388 murine leukemia) [mg/L] | IC50 [1] [mg/L] | IC50 ([1]; Homo sapiens, A549, 72 h, read-out: IC50) [mg/L] | IC50 [2] [mg/L] | IC50 ([2]; Homo sapiens, HT-29, 72 h, read-out: IC50) [mg/L] | IC50 (MEL-28 human melanoma) [mg/L] | cytotoxic activity [4]
1 | sensitive to light and air | CC1CCCCCCCN(CCCn2cc(-c3cc(O)c(O)c4ncccc34)c(-c3cc(O)c(O)c4ncccc34)c2)C1 (centres unmarked) [Halitulin, halitulin] | 0.025 (≈ 0.043 µM) | 0.0125 (≈ 0.0215 µM) | 0.012 (≈ 0.0207 µM) | 0.0125 (≈ 0.0215 µM) | 0.012 (≈ 0.0207 µM) | 0.025 (≈ 0.043 µM) | 
2 |  | CC1CCCCCN(CCCN)C1 (centres unmarked) [haliclorensin, N-(3′-arninopropyl)-3-methylazacyclodecane] |  |  |  |  |  |  | inactive
